Measurements reported in patent US20070122870A1, “Method for water testing and devices and kit of components for use in such a method” (priority 2003, published 2007).
“Also recorded” adds a separate entry of the source.

How the values were obtained:
[1] = system: V. natriegens; experiment: Growth dynamics (optical density, cell concentration) in closed cultures; format: cell-based, Vibrio natriegens; settings: closed culture; for bacterial growth (growth curve, growth rate, optical density, cell concentration): compared to the non-toxic control
Description: (ii) Sterile, 12-ml capacity, screw-capped, clear polystyrene test tubes (Starstedt) were selected as the most appropriate closed system for use in ECOALERT experiments. These test tubes are ideal for short-term cell culturing where aeration is not critical. Also, the optical density of the culture can be read as often as desired, by simply inserting the same tube in a spectrophotometer, thus avoiding contamination risks and reducing analysis time.
(viii) The effect of a range of contaminants on growth dynamics and sub-cellular bioindicators in closed cultures of V. natriegens was studied:
(xi) The sensitivity of cultures of V. natriegens to a range of contaminants in closed laboratory experimental systems was studied at specified toxic concentrations and time scales.

[2] = system: V. natriegens; experiment: Respiration (CTC fluorescence) in closed cultures; format: cell-based, Vibrio natriegens; settings: closed culture; for respiration: compared to the non-toxic control
Description: (vi) The application of the redox dye CTC (5-cyano-2,3-ditolyl tetrazolium chloride, Polysciences Europe) was developed to direct fluorimetric determination of respiration in bacterial suspensions. […] Traditionally, CTC has been used with flow cytometry and epifluorescence microscopy, combined with DAPI to counterstain total cells. However, its application to bacterioplankton remains controversial.
An exponentially growing culture of V. natrigens was incubated with the redox dye CTC following the standard procedure (2.0 mM final concentration, 4 h at 28° C.) and samples were taken every 30 minutes to count total cells and CTC+ cells in the microscope.
(§1) (viii) The effect of a range of contaminants on growth dynamics and sub-cellular bioindicators in closed cultures of V. natriegens was studied: […]

[3] = system: V. natriegens; experiment: DNA (thymidine uptake) and protein (leucine uptake) synthesis in closed cultures; format: cell-based, Vibrio natriegens; settings: closed culture; for protein synthesis / DNA synthesis: compared to the control
Description: (iv) The application of the 3H-leucine method of Smith and Azam (Marine Microbial. Food Webs. 6(2), 107-114, 1992) was developed and also used with 3H-thymidine to estimate bacterial production. The synthesis of DNA (thymidine uptake) and protein (leucine uptake) was studied in V. natriegens closed cultures. In non-toxic cultures the uptake of both radiotracers by the bacteria reaches maximal values between 4 and 8 hours of the experiment, coinciding with the log-phase of the growth curve.
as §1

[4] = system: caged Pseudomonas sp.; experiment: Growth limitation (OD) of caged bacteria in dialysis tubes; format: cell-based
Description: On the night before the experiment, a number of 2-litre HDPE bottles, one bottle per toxicity treatment, were filled with water (3/4 seawater 1-μm filtered, 1/4 distilled water). The bottles were kept at 15° C. stirring at low speed.
The dialysis tubes, which are supplied soaked in sodium azide, were rinsed throughly, refilled with distilled water and UV-irradiated for 10 minutes to ensure sterility.
Also the night before, a fresh culture of bacteria was inoculated from the original stock in liquid diluted medium.
Before starting the toxicity assay, the bottles were spiked with the contaminant and buffered to pH 7.3. At the same time, a fresh volume of diluted medium was inoculated from the culture grown overnight and kept for ˜2 hours at 15° C. until the growth rate picked up again and OD540 approached 0.005.
Then, the dialysis tubes were emptied of the water and four of them topped up with the bacterial culture, plus one blank tube with medium-only (no bacteria), and placed into the bottle to start the assay. Each bottle could hold 5 dialysis tubes floating upright.
The stirring was kept low and at time intervals samples were removed from the tubes with sterile pipettes to measure the different bacterial indicators.
(ix) The growth dynamics of toxic cultures of caged Pseudomonas sp. were studied. The effect of toxicity on the growth of caged bacteria was studied in several assays where different concentrations of contaminants were added to the water of the tanks.

[5] = system: caged Pseudomonas sp.; experiment: Respiration indicator (CTC) in toxic caged cultures; format: cell-based; settings: caged toxicity assays
Description: Respiration. Respiration was estimated with the redox dye CTC (Polysciences) as values of fluorescent intracellular formazan.
(§2) (x) Bacterial sub-cellular indicators (DNA, respiration, membrane integrity and viability) were studied in toxic cultures of caged Pseudomonas sp.

[6] = system: Pseudomonas; experiment: ECOALERT deployment in controlled flow-through system, respiration (CTC fluorescence); format: cell-based; settings: after 72 hours; 50 ppb BPH, 5 ppb TBDE; 7.5° C.
Description: The experimental setup involved 16 tanks (4 animal species 4 exposure treatments) connected in a flow-through system with a direct intake of seawater from 80 m depth in the Stavanger fjord, outside the laboratory. For each one of the test animals, three tanks were connected to a chemostate system which maintained a constant concentration of each of the following chemicals: 50 ppb bisphenol A (BPH), 50 ppb diallyl phthalate (DAP), and 5 ppb tetrabromodiphenylether or PBDE-47 (TBDE). The forth tank had no chemical supply and was used as control. ECOALERT was deployed in the mussel tanks, one basket per tank. The water conditions in all the tanks were: 7.5° C. temperature, pH 7.78 and […].
Each deploying basket of ECOALERT was equipped with 3 dialysis tubes with Pseudomonas, 3 tubes filled with Vibrio natriegens and 3 dialysis tubes with medium-only without cells. Each dialysis tube was repeatedly sampled at 1, 24, 48 and 72 hours. Due to the low temperature of the water (7.5° C.) a low bacterial growth rate was expected and because of that the duration of the experiment was expanded to 72 hours. At every time-point, growth and respiration activity of the bacteria were measured as turbidity and CTC fluorescence respectively using the handheld CTC fluorometer/turbidimeter. […]

[7] = system: caged Pseudomonas sp.; experiment: Bacterial DNA indicator (PicoGreen) in toxic caged cultures; format: cell-based; settings: caged toxicity assays
Description: Bacterial DNA. To improve the detection of bacterial DNA in culture samples, the PicoGreen double-strand DNA (dsDNA) reagent (Molecular Probes) was used instead of DAPI. PicoGreen reagent is more sensitive to small changes in the DNA content of bacterial cultures, resulting in a good correlation with OD.
as §2

[8] = system: bacterial culture; experiment: ECOALERT assay, ratio respiration/growth (CTC/TRB); format: cell-based; settings: compared to the control
Description: Two bacterial endpoints were chosen based on the results from Example 2: growth and respiration. Growth is an endpoint at population level and is estimated by measuring in vivo optical density (OD) or turbidity (TRB). Respiration is an endpoint at subcellular level and is measured by the fluorescence emitted by actively respiring bacteria, using the CTC redox dye.
To assess OD, TRB and CTC as indicators of toxicity a series of ECOALERT assays were carried out on a wide range of chemical substances, with special attention to common pharmaceuticals but also including some contaminants cited in the OSPAR list for priority action (OSPAR 2000). The concentrations tested were based on toxicological and environmental levels, where this information was available.
Even when no clear effect could be observed in the CTC indicator alone, there was an advantage in using the bacterial indicators OD (or TRB) and CTC simultaneously. That was because it was possible to use the ratio respiration/growth, which is an estimator of the proportion of respiring or active bacteria in the population, as an indirect indicator of the health of the population.

[9] = system: V. natriegens; experiment: LIVE/DEAD BacLight membrane integrity, closed cultures; format: cell-based, Vibrio natriegens; settings: closed culture
Description: (§3) (viii) Two ready-to-use commercial kits to assess cell viability (ProCheck™ Cell Viability Assay) and membrane integrity (LIVE/DEAD® BacLight™ Bacterial Viability Kit) were tested and adapted for using during ECOALERT experiments.
(§4) ProCheck™ is designed to measure the amount of viable, metabolising cells in a sample, and LIVE/DEAD® BacLight™ distinguish live and dead bacteria As a preliminary test, the two kits were tested in a volumetric series of mixtures of two bacterial types of V. natriegens: live, exponentially growing bacteria and dead bacteria killed by autoclaving an aliquot of the same culture. The colorimetric signal indicating cell viability (ProCheck™) and the fluorimetric signal indicating membrane integrity (LIVE/DEAD® BacLight™) increased linearly with the proportion of live bacteria in the mixture.

[10] = system: V. natriegens; experiment: ProCheck cell viability assay, closed cultures; format: cell-based, Vibrio natriegens; settings: closed culture, compared with the non-toxic control
Description: as §3, §4

[11] = compared with the non-toxic control

c1ccc2c(c1)ccc1ccccc12 [Phenanthrene, phenanthrene]
bacterial growth (growth curve, growth rate, optical density, cell concentration) [1]: did not affect bacterial growth significantly; also recorded: no major effect
respiration [2]: No effect
protein synthesis [3]: doubled; also recorded: small initial stimulation
DNA synthesis rates higher than control ([3]; on average): 30%

mercury [Hg]
growth limitation ([4]; 2 mg/L, 4 hours): Up to 60%
respiration as indicator of toxicity [5]: most sensitive indicator of toxicity

CC(C)(c1ccc(O)cc1)c1ccc(O)cc1 [BPH, bisphenol A]
bacterial respiration [6]: clear negative effect; also recorded: had an impact on bacteria

[Zn] [zinc]
growth limitation ([4]; 50 mg/L, after 4 h): 51%
toxicity / effect on growth ([4]; first experiment, doses between 0.05-5 mg/L): No significant toxicity; also recorded: positive effect in most of the treatments
DNA as indicator of toxicity [7]: sensitive indicator of toxicity

Oc1c(Cl)c(Cl)c(Cl)c(Cl)c1Cl [PCP]
CTC/TRB ratio [8]: loss of respiring cells

Brc1cccc(Oc2ccc(Br)c(Br)c2Br)c1 [TBDE, tetrabromodiphenylether]
bacterial respiration [6]: possible positive effect

[Pb] [lead]
growth limitation ([4]; 2 mg/L, 4 hours): 52%
respiration as indicator of toxicity [5]: most sensitive indicator of toxicity

CC(C)(c1cc(Br)c(O)c(Br)c1)c1cc(Br)c(O)c(Br)c1 [TBBA]
membrane integrity (LIVE/DEAD BacLight) ([9]; stationary phase): membrane damage
increase in cellular respiration (ratio respiration/optical density) ([2]; average): more than 90%
respiration [2]: sudden and important increase in respiration; also recorded: notable increase of respiration

dodecylbenzensulfonic acid sodium salt [detergent]
membrane integrity (LIVE/DEAD BacLight) [9, 11]: progressive damage of cellular membranes with time
membrane integrity (LIVE/DEAD BacLight) ([9]; stationary phase): deleterious effect on membranes
size of bacteria ([1]; compared to control bacteria, sodium salt): progressively reduced their size; also recorded: reduces
bacterial growth (growth curve, growth rate, optical density, cell concentration) ([1]; sodium salt): increased over the control; also recorded: seems to enhance
reduction in bacterial numbers ([1]; instant): 10 fold
respiration ([2]; sodium salt): contrary to that of the non-toxic control; also recorded: seems to enhance
reduction in respiration ([2]; instant): 10 fold
DNA synthesis [3]: increased slightly over the control
protein synthesis ([3]; sodium salt): inhibited but seems to recover after 48 h

[Cd] [Cd, cadmium]
growth limitation ([4]; 20 mg Cd/L, after 4 hours of exposure): 59%
growth limitation ([4]; lower Cd treatments): did not cause any clear limitation of bacterial growth
respiration as indicator of toxicity [5]: most sensitive indicator of toxicity

NC(=O)N1c2ccccc2C=Cc2ccccc21 [carbamazepine, reference compound]
CTC/TRB ratio [8]: initial positive effect

c1cc2ccc3cccc4ccc(c1)c2c34 [Pyrene, pyrene]
membrane integrity (LIVE/DEAD BacLight) ([9]; stationary phase): loss of membrane integrity
bacterial growth (growth curve, growth rate, optical density, cell concentration) [1]: no other effect was observed
increase in respiration ([2]; average): 14%

[Ni] [Ni, nickel]
growth limitation ([4]; 5 mg/L, end of a 9-h assay): 51%
growth limitation ([4]; 20 mg/L, after 9 hours): 69%
effect on growth ([4]; below 0.5 mg/L): seemed to favour growth

[Cu] [Cu, copper]
membrane integrity (LIVE/DEAD BacLight) [9, 11]: damage of membranes
cell viability (ProCheck) [10]: affecting cell viability
bacterial growth (growth curve, growth rate, optical density, cell concentration) [1]: notable slow down of the growth curve; also recorded: very conspicuous and instantaneous reduction
bacterial growth (growth curve, growth rate, optical density, cell concentration) ([1]; listed as copper): nearly ceased
respiration [2]: very conspicuous and instantaneous reduction
respiration ([2]; listed as copper): nearly ceased
DNA synthesis [3]: nearly ceased
protein synthesis [3]: nearly ceased
growth limitation ([4]; 20 mg/L, after 9 hours): 56%
effect on growth ([4]; additions under 0.1 mg/L): enhancing effect on growth
growth limitation ([4]; assays 1 (doses 0.001-10 mg Cu/L) and 2 (doses 0.02-20 mg Cu/L)): < 50%
DNA as indicator of toxicity [7]: could not detect limitation

Cl[C@H]1[C@H](Cl)[C@@H](Cl)[C@@H](Cl)[C@H](Cl)[C@H]1Cl [Lindane]
bacterial growth (growth curve, growth rate, optical density, cell concentration) [1]: transient, rather subtle stimulation; also recorded: transient, faint stimulation
respiration [2]: transient, rather subtle stimulation; also recorded: transient, faint stimulation
